Measurements: the supplement of paper PMC10307832

Columns and labels:
Test in all cases: relative viability (nuclei count vs DMSO), 5 days (fraction); higher = more cells survive
A-427 = test system: A-427
In short: (§1)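 Cells from lung cancer lines were seeded into 1536-well plates and, one day later, dosed by pin tool. Treatments were either a single drug or a fixed dose of an anchor drug with five library-drug doses (not always all listed) in √10 steps. After 5 days, nuclei were stained in a one-step fixation (final 0.05% Triton X-100, 1% formaldehyde, 1 ug/ml Hoechst) and counted on 4× images, and relative viability is the treated-to-vehicle nuclei ratio, as the median of duplicate plates.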

ABC-1 = test system: ABC-1
In short: as §1

EPLC-272H = test system: EPLC-272H
In short: as §1

HCC-15 = test system: HCC-15
In short: as §1

LC-2-ad = test system: LC-2-ad
In short: as §1

LK-2 = test system: LK-2
In short: as §1

NCI-H1734 = test system: NCI-H1734
In short: as §1

NCI-H1793 = test system: NCI-H1793
In short: as §1

NCI-H1915 = test system: NCI-H1915
In short: as §1

NCI-H1944 = test system: NCI-H1944
In short: as §1

NCI-H2009 = test system: NCI-H2009
In short: as §1

NCI-H2023 = test system: NCI-H2023
In short: as §1

NCI-H2342 = test system: NCI-H2342
In short: as §1

NCI-H2347 = test system: NCI-H2347
In short: as §1

NCI-H322M = test system: NCI-H322M
In short: as §1

NCI-H358 = test system: NCI-H358
In short: as §1

NCI-H441 = test system: NCI-H441
In short: as §1

NCI-H522 = test system: NCI-H522
In short: as §1

NCI-H647 = test system: NCI-H647
In short: as §1

NCI-H838 = test system: NCI-H838
In short: as §1

RERF-LC-KJ = test system: RERF-LC-KJ
In short: as §1

SW 1573 = test system: SW 1573
In short: as §1

UMC-11 = test system: UMC-11
In short: as §1

Question: What does the source list for Cc1csc(=NC2CCCCC2)n1/N=C/c1ccc(O)c(O)c1O [MIM1] + N=C(N)NC(=N)NCCc1ccccc1 [Phenformin] (partner 250 µM)?
Answer: relative viability (A-427; first compound 0.2 µM): 0.35; relative viability (A-427; first compound 2 µM): 0.361; relative viability (A-427; first compound 6.325 µM): 0.244; relative viability (A-427; first compound 20 µM): 0.137; relative viability (ABC-1; first compound 0.2 µM): 0.228; relative viability (ABC-1; first compound 0.6325 µM): 0.261; relative viability (ABC-1; first compound 2 µM): 0.231; relative viability (ABC-1; first compound 6.325 µM): 0.201; relative viability (ABC-1; first compound 20 µM): 0.189; relative viability (EPLC-272H; first compound 0.2 µM): 0.324; relative viability (EPLC-272H; first compound 0.6325 µM): 0.273; relative viability (EPLC-272H; first compound 2 µM): 0.279; relative viability (EPLC-272H; first compound 6.325 µM): 0.184; relative viability (EPLC-272H; first compound 20 µM): 0.104; relative viability (HCC-15; first compound 0.2 µM): 0.501; relative viability (HCC-15; first compound 2 µM): 0.51; relative viability (HCC-15; first compound 6.325 µM): 0.162; relative viability (HCC-15; first compound 20 µM): 0.114; relative viability (LC-2-ad; first compound 0.2 µM): 0.679; relative viability (LC-2-ad; first compound 0.6325 µM): 0.502; relative viability (LC-2-ad; first compound 2 µM): 0.537; relative viability (LC-2-ad; first compound 6.325 µM): 0.389; relative viability (LC-2-ad; first compound 20 µM): 0.217; relative viability (LK-2; first compound 0.2 µM): 0.602; relative viability (LK-2; first compound 2 µM): 0.49; relative viability (LK-2; first compound 6.325 µM): 0.147; relative viability (LK-2; first compound 20 µM): 0.148; relative viability (NCI-H1734; first compound 0.2 µM): 0.395; relative viability (NCI-H1734; first compound 0.6325 µM): 0.375; relative viability (NCI-H1734; first compound 2 µM): 0.443; relative viability (NCI-H1734; first compound 6.325 µM): 0.35; relative viability (NCI-H1734; first compound 20 µM): 0.179; relative viability (NCI-H1793; first compound 0.2 µM): 0.389; relative viability (NCI-H1793; first compound 2 µM): 0.351; relative viability (NCI-H1793; first compound 6.325 µM): 0.373; relative viability (NCI-H1793; first compound 20 µM): 0.302; relative viability (NCI-H1915; first compound 0.2 µM): 0.421; relative viability (NCI-H1915; first compound 0.6325 µM): 0.306; relative viability (NCI-H1915; first compound 2 µM): 0.344; relative viability (NCI-H1915; first compound 6.325 µM): 0.295; relative viability (NCI-H1915; first compound 20 µM): 0.22; relative viability (NCI-H1944; first compound 0.2 µM): 0.208; relative viability (NCI-H1944; first compound 0.6325 µM): 0.206; relative viability (NCI-H1944; first compound 2 µM): 0.149; relative viability (NCI-H1944; first compound 6.325 µM): 0.163; relative viability (NCI-H1944; first compound 20 µM): 0.104; relative viability (NCI-H2009; first compound 0.2 µM): 0.493; relative viability (NCI-H2009; first compound 0.6325 µM): 0.479; relative viability (NCI-H2009; first compound 2 µM): 0.45; relative viability (NCI-H2009; first compound 6.325 µM): 0.309; relative viability (NCI-H2009; first compound 20 µM): 0.169; relative viability (NCI-H2023; first compound 0.2 µM): 0.417; relative viability (NCI-H2023; first compound 0.6325 µM): 0.416; relative viability (NCI-H2023; first compound 2 µM): 0.294; relative viability (NCI-H2023; first compound 6.325 µM): 0.127; relative viability (NCI-H2023; first compound 20 µM): 0.0931; relative viability (NCI-H2342; first compound 0.2 µM): 0.656; relative viability (NCI-H2342; first compound 0.6325 µM): 0.543; relative viability (NCI-H2342; first compound 2 µM): 0.584; relative viability (NCI-H2342; first compound 6.325 µM): 0.53; relative viability (NCI-H2342; first compound 20 µM): 0.785; relative viability (NCI-H2347; first compound 0.2 µM): 0.435; relative viability (NCI-H2347; first compound 0.6325 µM): 0.32; relative viability (NCI-H2347; first compound 2 µM): 0.387; relative viability (NCI-H2347; first compound 6.325 µM): 0.39; relative viability (NCI-H2347; first compound 20 µM): 0.288; relative viability (NCI-H322M; first compound 0.2 µM): 0.905; relative viability (NCI-H322M; first compound 0.6325 µM): 0.809; relative viability (NCI-H322M; first compound 2 µM): 0.766; relative viability (NCI-H322M; first compound 6.325 µM): 0.735; relative viability (NCI-H322M; first compound 20 µM): 0.36; relative viability (NCI-H358; first compound 0.2 µM): 0.373; relative viability (NCI-H358; first compound 0.6325 µM): 0.296; relative viability (NCI-H358; first compound 2 µM): 0.299; relative viability (NCI-H358; first compound 6.325 µM): 0.135; relative viability (NCI-H358; first compound 20 µM): 0.118; relative viability (NCI-H441; first compound 0.2 µM): 0.914; relative viability (NCI-H441; first compound 2 µM): 0.865; relative viability (NCI-H441; first compound 6.325 µM): 0.543; relative viability (NCI-H441; first compound 20 µM): 0.203; relative viability (NCI-H522; first compound 0.2 µM): 0.697; relative viability (NCI-H522; first compound 0.6325 µM): 0.665; relative viability (NCI-H522; first compound 2 µM): 0.672; relative viability (NCI-H522; first compound 6.325 µM): 0.52; relative viability (NCI-H522; first compound 20 µM): 0.571; relative viability (NCI-H647; first compound 0.2 µM): 0.602; relative viability (NCI-H647; first compound 0.6325 µM): 0.431; relative viability (NCI-H647; first compound 6.325 µM): 0.4; relative viability (NCI-H647; first compound 20 µM): 0.0969; relative viability (NCI-H838; first compound 0.2 µM): 0.543; relative viability (NCI-H838; first compound 0.6325 µM): 0.621; relative viability (NCI-H838; first compound 2 µM): 0.562; relative viability (NCI-H838; first compound 6.325 µM): 0.354; relative viability (NCI-H838; first compound 20 µM): 0.14; relative viability (RERF-LC-KJ; first compound 0.2 µM): 0.447; relative viability (RERF-LC-KJ; first compound 0.6325 µM): 0.414; relative viability (RERF-LC-KJ; first compound 2 µM): 0.348; relative viability (RERF-LC-KJ; first compound 6.325 µM): 0.353; relative viability (RERF-LC-KJ; first compound 20 µM): 0.303; relative viability (SW 1573; first compound 0.2 µM): 0.377; relative viability (SW 1573; first compound 0.6325 µM): 0.455; relative viability (SW 1573; first compound 2 µM): 0.442; relative viability (SW 1573; first compound 6.325 µM): 0.25; relative viability (SW 1573; first compound 20 µM): 0.081; relative viability (UMC-11; first compound 0.2 µM): 0.326; relative viability (UMC-11; first compound 2 µM): 0.336; relative viability (UMC-11; first compound 6.325 µM): 0.291; relative viability (UMC-11; first compound 20 µM): 0.201
